{"source": "ChEMBL document CHEMBL5532655", "about": "“Discovery of (R)-4-(8-methoxy-2-methyl-1-(1-phenylethy)-1H-imidazo[4,5-c]quinnolin-7-yl)-3,5-dimethylisoxazole as a potent and selective BET inhibitor for treatment of acute myeloid leukemia (AML) guided by FEP calculation” (Eur J Med Chem, 2024)", "key": {"[1]": {"test_system": "MV4-11", "assay": "Induction of cell cycle arrest in human MV4-11 cells assessed as accumulation of cells at G2/M phase at 5 uM incubated for 24 hrs by propidium iodide staining flow cytometric analysis (reference value: 18 %)", "type": "functional"}, "[2]": {"test_system": "MV4-11", "assay": "Induction of cell cycle arrest in human MV4-11 cells assessed as accumulation of cells at G2/M phase at 0.3125 uM incubated for 24 hrs by propidium iodide staining flow cytometric analysis (reference value: 18 %)", "type": "functional"}}}
{"compound": "COc1cc2c(cc1-c1c(C)noc1C)ncc1nc(C)n([C@H](C)c3ccccc3)c12", "values": [{"measurement": "Activity", "setting": "[1]", "result": 3.63, "unit": "%"}, {"measurement": "Activity", "setting": "[2]", "result": 6.33, "unit": "%"}]}
